Test results: patent publication US10155742B2, “Halofuginol derivatives and their use in cosmetic and pharmaceutical compositions” (President and Fellows of Harvard College, priority 2012, dated 2018)

Columns and labels:
[1] = tested on: primary human prostate stromal (hPrSc) cells, col1a1; experiment: Type I collagen (col1a1) mRNA in primary human prostate stromal cells; format: cell-based; details: treated twice for 48 hours, FIG. 27
Method: Primary human prostate stromal (hPrSc) cells were left in low-serum media (0.2%) for 24 hours, and treated consecutively twice for 48 hours, halofuginone (HF) or halofuginol (HFol) at the concentrations indicated. Relative mRNA levels of the myofibroblastic markeralpha 1 collagen type 1 (col1a1) was measured by quantitative real-time PCR using glyceraldehyde-3-phosphate dehydrogenase (GAPDH) as internal control.

[2] = tested on: primary human prostate stromal (hPrSc) cells, s100a4; experiment: S100A4 mRNA in primary human prostate stromal cells; format: cell-based; details: with or without TGF 10 ng/ml, FIG. 28
Method: Primary human prostate stromal (hPrSc) cells were left in low-serum media (0.2%) for 24 hours, and treated consecutively twice for 48 hours with or without tumor-growth factor beta (TGF; 10 ng/ml), halofuginone (HF) or halofuginol (HFol) at the concentrations indicated. Relative mRNA levels of the fibrosis/tissue invasion marker s100a4 was measured by quantitative real-time PCR using glyceraldehyde-3-phosphate dehydrogenase (GAPDH) as internal control.

mTORC1 signaling in MEFs = experiment: mTORC1 pathway phosphorylation by Western blot; format: cell-based, mouse; details: 100 nM HF, FIG. 16
Method: MEFs growing in DME/10% FCS were treated with 100 nM HF or 0.5 μM rapamycin and analyzed by Western blot for phosphorylation of component of the mTor signaling pathway.

[3] = de Jonge et al. 2006; cited from earlier work
[4] = molecular target: T1, prolyl tRNA synthetase domain of human EPRS (ProRS) (Homo sapiens, UniProt P07814); experiment: biochemical
T1 sequence (P07814 998-1512 limits assumed): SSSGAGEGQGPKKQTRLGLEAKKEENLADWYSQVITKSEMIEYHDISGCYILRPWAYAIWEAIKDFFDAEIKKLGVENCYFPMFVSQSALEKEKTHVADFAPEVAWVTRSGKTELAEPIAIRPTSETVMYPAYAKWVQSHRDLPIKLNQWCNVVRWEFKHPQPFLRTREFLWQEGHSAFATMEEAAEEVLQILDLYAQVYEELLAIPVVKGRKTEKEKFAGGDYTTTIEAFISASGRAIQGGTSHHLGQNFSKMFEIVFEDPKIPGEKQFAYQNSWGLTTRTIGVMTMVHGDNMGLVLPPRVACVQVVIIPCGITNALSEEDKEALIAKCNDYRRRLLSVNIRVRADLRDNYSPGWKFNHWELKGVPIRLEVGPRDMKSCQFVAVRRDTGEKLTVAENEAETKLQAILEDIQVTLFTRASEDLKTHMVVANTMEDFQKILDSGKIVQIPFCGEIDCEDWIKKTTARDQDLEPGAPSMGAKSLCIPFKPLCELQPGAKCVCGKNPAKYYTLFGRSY
Method: Activity of the Prolyl tRNA synthetase domain of EPRS (ProRS) was measured as ^3H Pro incorporation into the charged tRNA pool. […] Purified enzyme was visualized as a single band by Laemmli gel electrophoresis/Coomassie staining.
Purified enzyme was visualized as a single band by Laemmli gel electrophoresis/Coomassie staining. […] In preliminary experiments, the assay was established to be linear over the time (6 min) and conditions used (30 degrees, 2 mM ATP, 1 μg/μl total tRNA purified from rabbit liver).
For the rapid, quantitative isolation of aminoacylated tRNA^pro from synthetase reaction mixtures, reactions were stopped with 100 μl of ice cold 20 mM MOPS pH6.2, 200 mM NaCl, 10 mM EDTA, 30% Glycerol and placed on ice. Samples were added to 15 μl of packed Mono Q HP beads (GE Healthcare) equilibrated in the same buffer. Samples were incubated with beads on ice for 10 min, beads were pelleted by 5 sec centrifugation in a tabletop microfuge and washed 3× 1 ml of wash buffer (20 mM MOPS pH6.2, 50 mM NaCl), and recovered pellets counted in a liquid scintillation counter. Background binding of ^3H Pro to beads (using reaction mix with either no enzyme added or no tRNA added) was negligible (20-40 cpm).

[5] = tested on: translation in rabbit reticulocyte lysate (RRL); experiment: In vitro translation assay in rabbit reticulocyte lysate (RRL)
[6] = inhibitor 1 μM, anti-myc Western blot, FIG. 2C

O=C(C[C@H]1NCCC[C@@H]1O)Cn1cnc2cc(Br)c(Cl)cc2c1=O (racemic) [HF, 7-bromo-6-chloro-3-[3-(3-hydroxy-2-piperidinyl)-2-oxopropyl]-4(3H)-quinazolinone]
Type 1 collagen expression in fibroblasts in culture [1]: inhibit | expression of the activated fibroblast marker S100A4 [2]: inhibit | inhibition of mTORC1 signaling / downstream targets (mTORC1 signaling in MEFs): without concomitant inhibition | inhibition of mTORC1 signaling / downstream targets (mTORC1 signaling in MEFs; listed as halofuginone): does not directly inhibit | toxicity in humans (nausea, vomiting, fatigue, possibly bleeding complications) [3]: some toxicity | Ki [4]: 18.3 nM | translation of Nopropep (proline-free polypeptide) [5, 6]: no effect | translation of Propep (proline dipeptide containing polypeptide) [5, 6]: prevent translation | inhibition of translation of luciferase RNA in RRL ([5]; luminescence assay, FIG. 2A/2B): inhibited
